# Source: US10729659B2, “Nanogel-mediated drug delivery” (The Cleveland Clinic Foundation, priority 2012, dated 2020)
# What was measured:
# [1] = tested on: MCF-7/Adr cells; test: Cell viability assay, DAC solution vs DAC nanogel; assay type: cell-based; conditions: Homo sapiens, NCI/ADR-RES, read-out: IC50 value at day 12 post drug treatment
# Description: Cytotoxicity of DAC in solution vs. DAC loaded nanogel was compared at day 5, 10 or 12 post drug additions in drug resistant cells. In a typical experiment; cells were seeded at 3000 cells/well in 96 well plates. 24 h post seeding, 0.1 mL cell culture media containing different concentrations of DAC solution or DAC nanogel was added and incubated for 3 d. Post incubation; cells were washed with 1×-DPBS and then replaced with drug free medium at every 48 h until cell viability was measured via an MTS assay kit (Promega CellTiter 96 AQueous Promega, Madison, Wis.). The effects of the drug on cell proliferation were calculated as the percentage cell growth vs. growth of control cells that received no drug treatment.
# Cytotoxicity of DAC in solution vs. different DAC loaded nanogel formulations was compared at day 5, 10 or 12 post drug additions in drug resistant cells. In a typical experiment, cells were seeded at 3000 cells/well in 96 well plates. Twenty four hr post seeding, 0.1 mL cell culture media containing different concentrations of DAC solution or DAC nanogel was added and incubated for 3 d. […] Cell viability was measured using MTS (Promega CellTiter 96 AQueous Promega, Madison, Wis.). The effects of the drug on cell proliferation were calculated as the percentage cell growth vs. growth of control cells that received no drug treatment.
# [2] = tested on: MCF-7/Adr cells; test: Microarray gene expression analysis; assay type: cell-based, human; conditions: decitabine vs untreated MCF-7/Adr
# Description: Microarray analysis was performed using the standard protocol provided by IlluminaCorporation (San Diego, Calif.). […] 20 μL of nuclease free water containing total RNA at the concentration of 100 ng/μL was stored at −80° C. Approximately […] of total RNA was subjected to gene expression array study using Illuminahuman 6v2 chip. The array-hybridization and scanning of array images were performed at the Cleveland Clinic Genomics Core. The microarray scanned image and intensity files were imported into Illumina Bead Studio Analysis software version 3.2.6 (Illumina Inc.). Error models were applied and ratios were built for each treatment array versus its respective vehicle control. For qPCR analysis, RNA isolated from treated and untreated cells were converted into cDNA using Mo-MLV reverse transcriptase (Promega Inc., USA) according to manufacturers' instructions. Taqman expression primers (Applied Biosystems Inc., USA) and ABI PRISM Sequence Detection Instrument 7700 (Applied Biosystems Inc., USA) were used for real-time reverse transcription-PCR (RT-PCR). Fold change in target genes was calculated about the human glyceraldehyde 3-phosphate dehydrogenase (GAPDH).
# [3] = tested on: MCF-7/Adr cells; test: Cellular uptake of dox; assay type: cell-based, human; conditions: DAC 50 ng/mL 24 h, then dox 1 μg/mL; 15 min to 12 h
# Description: Drug resistant breast cancer cells were seeded in 24 well plates (1.2×10^6 cells/well). Post 48 h seeding, cells were pre-treated with DAC (50 ng/mL; 24 h); and then incubated with fixed concentration of dox (1 μg/mL) for indicated time points. Post drug incubation cell lysates in RIPA buffer was collected and lyophilized. Dox was extracted from lyophilized cell lysates using methanol as the solvent and analyzed by HPLC.
# [4] = tested on: MCF-7/Adr xenograft tumor; test: In vivo anti-tumor efficacy, drug-resistant breast cancer model; set-up: species or system athymic nude mice; conditions: single intravenous dose 15 mg/kg; vs control nanogel, DAC in solution
# Description: A murine drug-resistant breast cancer model (MCF-7/ADR) was used to investigate the anti-tumor efficacy of DAC nanogels. To establish tumors, 1×10^6 MCF-7/ADR cells were suspended in 100 μL of matrigel (BD biosciences San Jose, Calif.) and injected in the mammary fat pad via a 27 G ½ gauge needle. Tumor nodules were allowed to grow to about 300 mm3 prior to receiving DAC nanogels (drug dose 15 mg/kg) or its respective controls (DAC in solution or Control Nanogels) intravenously. Post single treatment, tumor dimensions were measured with a digital caliper at regular time intervals and the tumor volume was calculated using the formula [length×(width)^2]/2. […] Data were expressed as mean±SEM (n=3 to 6). Variances in tumor growth were determined using one-way ANOVA test followed by Tukey test using GraphPad Prism version 4.0 for Windows (p<0.05).
# In vivo anti-tumor efficacy of DAC nanogels in athymic nude mice bearing MCF-7/Adr xenograft tumor: To establish tumors, 1×10^6 MCF-7/Adr cells were suspended in 100 μL of matrigel (BD biosciences San Jose, Calif.) and injected in the mammary fat pad via a 27 G ½ gauge needle. […] Tumor dimensions were measured with a digital caliper at regular time interval and the tumor volume was calculated using the formula [length×(width)2]/2. Data were expressed as mean±SEM (n=3 to 6). […]
smiles,measurement,setting,value
"Nc1ncn([C@H]2C[C@H](O)[C@@H](CO)O2)c(=O)n1 [DAC, 5-aza-2′-deoxycytidine]",IC50,[1],0.434 µg/mL
same,Fold Change 48 h,"[2]; gene CDKN1A (p21, Cip1)",3.6 fold
same,Fold Change 48 h,[2]; gene CST6,52.8 fold
same,Fold Change 48 h,[2]; gene DPEP3,−87.8 fold
same,Fold Change 48 h,[2]; gene DPPA2,−11.2 fold
same,Fold Change 48 h,[2]; gene GAGE2,1754.4 fold
same,Fold Change 48 h,[2]; gene GAGE5,1358.9 fold
same,Fold Change 48 h,[2]; gene GAGE6,813.8 fold
same,Fold Change 48 h,[2]; gene GAGE7B,907.8 fold
same,Fold Change 48 h,[2]; gene GAGE8,411.0 fold
same,Fold Change 48 h,[2]; gene IL23A (p19),3.02 fold
same,Fold Change 48 h,[2]; gene MAGEA4,4.7 fold
same,Fold Change 48 h,[2]; gene MMP9,−215.1 fold
same,Fold Change 48 h,[2]; gene PAGE 4,11.6 fold
same,Fold Change 48 h,[2]; gene PAGE5,25.4 fold
same,Fold Change 48 h,[2]; gene PAK3,2.7 fold
same,Fold Change 48 h,[2]; gene PNMA5,−19.8 fold
same,Fold Change 48 h,[2]; gene PYCARD,23.6 fold
same,Fold Change 48 h,[2]; gene RASD1,35.6 fold
same,Fold Change 48 h,[2]; gene SOCSI,28.2 fold
same,Fold Change 48 h,[2]; gene SOX15,10.2 fold
same,Fold Change 48 h,[2]; gene STK31,1663.3 fold
same,Fold Change 48 h,[2]; gene TFF2,−16.8 fold
same,Fold Change 48 h,[2]; gene THY1,103.1 fold
same,Fold Change 48 h,[2]; gene TMEM101,33.7 fold
same,Fold Change 48 h,[2]; gene ZFP42,−22.5 fold
same,Uptake of dox in DAC pre-treated cells vs dox alone,[3],higher increase in uptake of dox
same,Tumor growth / tumor size,[4],not different
